# Results from US20080194540A1, “Use of a Tricyclic Antidepressant Drug For Promoting Endocytosis” (RINA NETZWERK RNA-TECHNOLOGIEN GMBH, priority 2003, published 2008).
# Legend:
# [1] = tested on: HepG2 cells; experiment: Mammal cells system transfection with luciferase plasmid (luciferase activity); format: cell-based; details: FIG. 1b, concentration series, ordinate values standardized to chloroquine
# Protocol: HepG2 cells were drawn in Dulbecco's Modified Eagle Medium (DMEM, Gibco BRL, Eggenstein, Germany), supplemented with 10% FBS (fetal bovine serum, Gibco) and 1 μg/ml insulin. On day 1, the cells were removed by means of trypsination, washed and distributed on the wells of a 24-well tissue culture dish, namely 1.5·10^7 cells per well.
# 24 hours later the transfection tests were performed with the luciferase plasmid from example 1 with different substances at approx. 70 to 80% confluence. The supernatant was removed, and then a mixture (250 μl) containing medium, 12.5 μl dextran (10 mg/ml), 0.5 μl of the plasmid and the respective substance was added to every well. After 2.5 hours incubation at 37° C., the supernatant was removed, and 500 μl complete medium were added to each well. On day 5, the luciferase activity was measured by using the Dual Luciferase® Reporter Assay Kit (Promega, Mannheim, Germany). For this purpose, 48 hours after the transfection, the cell culture supernatants were removed, and the cells were solubilized after addition of 100 μl 1× lysis buffer per well (Promega) for 20 minutes at 20° C. on a slow shaker. 20 μl of the cell-free supernatant were transferred into a 96-well plate (Corning and Costar, Wiesbaden, Germany) and reacted with 100 μl luciferase assay buffer. The luciferase activity was measured with a luminometer (EG&G Berthold MicrolumatPlus).
# For each used substance, the optimum concentration was determined by means of concentration series. For this purpose, concentration series of the respective substances were used. For comparing, corresponding measurements were performed with chloroquine. […] The ordinate values are standardized to chloroquine.
# [2] = tested on: yeast cells (strain RPY10); experiment: Yeast system transfection with pFL1 plasmid (cfu relative to negative control); format: cell-based, Saccharomyces cerevisiae; details: FIG. 1a, concentration series, ordinate values standardized to chloroquine
# Protocol: A first cell system is a yeast system. The transfection protocol corresponded to that of the document B. Neukamm et al., Biochimica et Biophysica Acta 1572:67-76 (2002). For the measurements, a lab robot (Zinsser, Frankfurt, Germany) was used, and a pipetting protocol was prepared.
# Yeast precultures were drawn from cultures of a −70° C. glycerol stock of the strain RPY10 (R. C. Piper et al., Eur J Cell Biol 65:305-318 (1995)) for 72 hours. In the main culture, the cells were drawn over night in YPD medium up to a cell density of 5 to 8·10^7 cells/ml. 12·10^9 cells were harvested and washed twice with the same volume of distilled water. The cells were made competent for the transfection by soaking in distilled water for 30 minutes at 4° C. The competent cells were harvested and resuspended in 10 ml 34% sucrose, adjusted with HCl to pH 4. The suspension was immediately transferred into a sterilized 40 ml glass tube (Zinsser Analytik, Frankfurt, Germany), which were then sealed by an aluminum foil. The tubes were then placed on a shaker on the platform of the lab robot and treated for 40 seconds at 300 rpm. The suspension was automatically distributed into the wells of a 96-well microtiter plate (80 μl each by using stainless steel tips).
# The subsequent pipetting protocol was as follows. First, solutions of a substance according to the invention or of a reference substance in different concentrations were added. Exactly 5 minutes later, 10 μl of a solution or suspension of the pFL1 plasmid (0.15 μg/μl) of example 1 were automatically added to the mixture of cells and substance. Some wells were used for a negative control, and only the used solvents and the plasmid were added to the cell suspension, not however the substance. After termination of the pipetting protocol, the plate was covered and placed on the Desyre mixer (Zinsser Analytik). After vortexing for 1 minute at 1,300 rpm, an incubation was performed at 28° C. for 18-20 hours. After the incubation, 110 μl distilled water each were slowly added. Then the cells of each well were transferred to 6-well plates (PS Macroplate, Greiner), filled up with 4 ml WMIXura (Neukamm et al., see above). The wells of the microtiter plate were each washed with 50 μl distilled water, and the washing solution was pipetted on the solid surface of the WMIXura. The macroplates were left dry and incubated for 4 days at 28° C.
# Colony forming units (cfu) were then counted in every well. The obtained cfu values were related to the cfu values of the negative control. This ratio is a measure for the transfection effectivity.
# For each used substance, the optimum concentration was determined by means of concentration series. For this purpose, concentration series of the respective substances were used. […]
Structure (SMILES),"optimum concentration for promoting transfection, compared to chloroquine [1]","optimum concentration for promoting transfection, compared to chloroquine [2]"
Clc1ccc2c(c1)C(N1CCNCC1)=Nc1ccccc1O2 [amoxapine],smaller,smaller
CN(C)CCCN1c2ccccc2Sc2ccc(Cl)cc21 [chlorpromazine],smaller,smaller
CN(C)CCC=C1c2ccccc2COc2ccccc21 [doxepine],similarly high,similarly high
CNCCCC12CCC(c3ccccc31)c1ccccc12 [maprotyline],smaller,smaller
